Measured values published in publication PMC8327158, “PEGylated AdipoRon derivatives improve glucose and lipid metabolism under insulinopenic and high-fat diet conditions” (Journal of Lipid Research, 2021).

Tested on: HFD-fed wild-type mice
Test: Sphingolipid levels in tissues and serum of HFD-fed mice by mass spectrometry
Type: in vivo, mouse
Details: for Cer 14:0 / Cer 16:0 / Cer 18:0 / Cer 18:1 / Cer 20:0 / Cer 22:0 / Cer 24:0 / Cer 24:1 / Cer 26:0 / Cer 26:1 / DeoxySphinganie / Deoxysphingosine / Hexosyl 14:0 / Hexosyl 16:0 / Hexosyl 18:0 / Hexosyl 20:0 / Hexosyl 22:0 / Hexosyl 24:0 / Hexosyl 24:1 / Lactosyl 16:0 / Lactosyl 18:0 / Lactosyl 22:0 / Lactosyl 24:1 / Lactosyl C24:0 / Sphingaine1P / Sphinganine / Sphingosine / Sphingosine1P / dCer 16:0 / dCer 18:0 / dCer 20:0 / dCer 22:0 / dCer 24:0 / dCer 24:1: 5 mg/kg twice a day 5 days, average ± SD
Protocol: Six-week-old wild-type male mice were fed HFD for 4 weeks or 7 months In total, 5 mg/Kg of PBS, Adiporon, AdipoRonPEG5, AdipoRonPEG6HTL were injected twice a day for 5 days. After 5 days of treatment, systemic test is performed, and serum (Before and after treatment), subcutaneous, epididymal, liver, heart samples were harvested for qPCR and sphingolipid analysis.
Flash-frozen tissue samples (~40 mg) in a borosilicate glass tube were quenched with 2.0 ml of organic extraction solvent (isopropanol: ethyl acetate, 15:85; v:v) and homogenized with a mechanical tissue disruptor. Immediately afterward, 20 μl of organic internal standard solution was added (Ceramide/Sphingoid Internal Standard Mixture II diluted 1:10 in ethanol). The mixture was vortexed for 20 s and sonicated in ultrasonic bath for 40 min at 40°C. The organic extract was allowed to reach room temperature, and 1.5 ml of HPLC water was added and a two-phase liquid-liquid extraction was performed. The upper phase was transferred to a new clean tube, and the lower aqueous phase containing the protein pellet was re-extracted with additional 2.0 ml of organic extraction solvent. The organic phases were combined and dried under nitrogen stream at 40°C. Dried extracts were stored at –80°C until analysis. For analysis of ceramides and sphingoid base species, the dried residues were reconstituted in 200 μl of methanol. Sphingomyelins required a sample dilution of 1:50 in methanol prior to analysis. Serum sphingolipids were extracted using a similar methodology requiring 25 μl of serum.
Liver, subcutaneous adipose tissue, pancreas, pancreatic islets were initially homogenized in 500 μl of cold PBS using an ultrasonic probe disruptor and keeping the sample on ice during sonication. In total, 50 μl of aqueous homogenate was aliquoted for protein determination. In total, 400 μl of the lysate was immediately quenched in 2.0 ml of organic extraction solvent.
In total, 5 μl of reconstituted samples was injected into an LC/MS/MS system for the analysis of ceramides and sphingoid bases, and 1 μl injection was required for the analysis of sphingomyelins. The system consisted of a Shimadzu LCMS-8050 triple-quadrupole mass spectrometer with the dual ion source operating in electrospray positive ionization mode. The mass spectrometer is coupled to a Shimadzu Nexera X2 UHPLC system equipped with three solvent delivery modules LC-30AD, three degassing units DGU-20A5R, an autosampler SIL-30ACMP, and a column oven CTO-20AC operating at 40°C (Shimadzu Scientific Instruments, Columbia, MD). Six sphingoid bases (d18:1 sphingosine, d18:1 sphingosine-1-phosphate, d18:1 deoxysphingosine, d18:0 sphinganine, d18:0 sphinganine-1-phosphate, d18:0 deoxysphinganine) and […] ceramide species and their metabolites (C16:0, C16:0 dihydroceramide, C16:0 glucosylceramide, C16:0 lactosylceramide, C16:0 sphingomyelin, C18:0, C18:0 dihydroceramide, C18:0 glucosylceramide, C18:0 sphingomyelin, C18:1, C20:0, C22:0, C22:0 glucosylceramide, C24:0, C24:0 dihydroceramide, C24:0 lactosylceramide, C24:0 sphingomyelin, C24:1, C24:1 dihydroceramide, C24:1 glucosylceramide, C24:1 sphingomyelin). Quantitative analysis of sphingolipids was achieved using selective reaction monitoring scan mode. Lipid separation was achieved by reverse phase LC on a 2.1 (i.d.) × 150 mm Ascentis Express C8, 2.7 micron (Supelco, Bellefonte, PA) column under gradient elution, using three different mobile phases: eluent A consisting of methanol/water/formic acid, 600/400/0.8, v/v/v with 5 mM ammonium formate, eluent B consisting of methanol/formic acid, 1,000/0.8, v/v with 5 mM ammonium formate, and eluent C consisting of CH3OH/CH2Cl2 350/650. The concentration of each metabolite was determined according to calibration curves using the peak-area ratio of analyte versus corresponding internal standard. Calibration curves were generated using serial dilutions of each target analyte.

**Q.** What does the source list for O=C(COc1ccc(C(=O)c2ccccc2)cc1)NC1CCN(Cc2ccc(OCCOCCOCCOCCOCCO)cc2)CC1 [AdipoRonPEG5]?
**A.** pancreas S1P level (5 mg/kg): trend of elevating S1P; pancreas dihydroceramide levels (5 mg/kg): minimal impact; scWAT ceramide levels (5 mg/kg): neither AdipoRon nor AdipoRonPEG5 had a noticeable impact; pancreas C24:0 and C24:1 ceramides (5 mg/kg, vs saline controls or AdipoRon): significant reduction; hepatic dihydroceramides (IP 5 mg/kg): drastically reduced; serum dihydroceramides dC16:0, dC18:0, dC22:0, dC24:0 (IP 5 mg/kg): drastically lowered; sphingoid bases including S1P in the liver (IP 5 mg/kg): overall increase; Cer 14:0 (liver): 10700.6 ± 4986.87 pg/mg; Cer 16:0 (liver): 10811.2 ± 3038.11 pg/mg; Cer 18:0 (liver): 41588.7 ± 18827.94 pg/mg; Cer 18:1 (liver): 0 pg/mg; Cer 20:0 (liver): 1285175.8 ± 314117.31 pg/mg; Cer 22:0 (liver): 17214621.7 ± 3730792.66 pg/mg; Cer 24:0 (liver): 13003125.0 ± 3100177.0 pg/mg; Cer 24:1 (liver): 11982004.5 ± 3750645.21 pg/mg; Cer 26:0 (liver): 114936.8 ± 43584.75 pg/mg; Cer 26:1 (liver): 108478.1 ± 38829.61 pg/mg; DeoxySphinganie (liver): 17056.5 ± 5841.85 pg/mg; Deoxysphingosine (liver): 674.4 ± 179.33 pg/mg; Hexosyl 14:0 (liver): 9405.4 ± 4098.51 pg/mg; Hexosyl 16:0 (liver): 2563091.7 ± 636477.68 pg/mg; Hexosyl 18:0 (liver): 8702.7 ± 4241.12 pg/mg; Hexosyl 20:0 (liver): 91341.0 ± 29325.4 pg/mg; Hexosyl 22:0 (liver): 18299628.4 ± 6151493.38 pg/mg; Hexosyl 24:0 (liver): 9345685.4 ± 2422218.78 pg/mg; Hexosyl 24:1 (liver): 8806042.3 ± 2575774.26 pg/mg; Lactosyl 16:0 (liver): 857779.3 ± 221964.15 pg/mg; Lactosyl 18:0 (liver): 0.0 ± 0.0 pg/mg; Lactosyl 22:0 (liver): 403630.8 ± 109007.39 pg/mg; Lactosyl 24:1 (liver): 403865.6 ± 85387.31 pg/mg; Lactosyl C24:0 (liver): 284732.8 ± 96368.82 pg/mg; Sphingaine1P (liver): 124644.1 ± 37940.82 pg/mg; Sphinganine (liver): 567456.6 ± 215845.28 pg/mg; Sphingosine (liver): 1814140 ± 638775.97 pg/mg; Sphingosine1P (liver): 423169.5 ± 201268.1 pg/mg; dCer 16:0 (liver): 7004.1 ± 1704.17 pg/mg; dCer 18:0 (liver): 30523.3 ± 10512.82 pg/mg; dCer 20:0 (liver): 17088.9 ± 5527.47 pg/mg; dCer 22:0 (liver): 85360 ± 20574 pg/mg; dCer 24:0 (liver): 355838.6 ± 67813.11 pg/mg; dCer 24:1 (liver): 64056.2 ± 12063.67 pg/mg; Cer 14:0 (pancreas): 20.8 ± 6.06 pg/mg; Cer 16:0 (pancreas): 28.6 ± 10.14 pg/mg; Cer 18:0 (pancreas): 31.4 ± 12.12 pg/mg; Cer 18:1 (pancreas): 0 pg/mg; Cer 20:0 (pancreas): 1410.3 ± 372.3 pg/mg; Cer 22:0 (pancreas): 5266.0 ± 1349.3 pg/mg; Cer 24:0 (pancreas): 16049.4 ± 4089.83 pg/mg; Cer 24:1 (pancreas): 7744.9 ± 1489.17 pg/mg; Cer 26:0 (pancreas): 162.6 ± 42.67 pg/mg; Cer 26:1 (pancreas): 88.6 ± 17.21 pg/mg; DeoxySphinganie (pancreas): 2.4 ± 0.49 pg/mg; Deoxysphingosine (pancreas): 0.0 ± 0.0 pg/mg; Hexosyl 14:0 (pancreas): 4.2 ± 0.35 pg/mg; Hexosyl 16:0 (pancreas): 2792.5 ± 371.94 pg/mg; Hexosyl 18:0 (pancreas): 8.8 ± 4.08 pg/mg; Hexosyl 20:0 (pancreas): 111.6 ± 39.83 pg/mg; Hexosyl 22:0 (pancreas): 5728.8 ± 1888.49 pg/mg; Hexosyl 24:0 (pancreas): 3233.9 ± 524.83 pg/mg; Hexosyl 24:1 (pancreas): 1360.1 ± 170.0 pg/mg; Lactosyl 16:0 (pancreas): 1043.4 ± 60.99 pg/mg; Lactosyl 18:0 (pancreas): 61.7 ± 15.72 pg/mg; Lactosyl 22:0 (pancreas): 258.7 ± 89.43 pg/mg; Lactosyl 24:1 (pancreas): 337.2 ± 90.18 pg/mg; Lactosyl C24:0 (pancreas): 2121.1 ± 714.63 pg/mg; Sphingaine1P (pancreas): 25.6 ± 5.99 pg/mg; Sphinganine (pancreas): 34.5 ± 9.74 pg/mg; Sphingosine (pancreas): 219.2 ± 31.51 pg/mg; Sphingosine1P (pancreas): 113.2 ± 32.02 pg/mg; dCer 16:0 (pancreas): 5.7 ± 3.12 pg/mg; dCer 18:0 (pancreas): 0.0 ± 0.0 pg/mg; dCer 20:0 (pancreas): 1.9 ± 0.7 pg/mg; dCer 22:0 (pancreas): 54.2 ± 43.08 pg/mg; dCer 24:0 (pancreas): 302.0 ± 155.43 pg/mg; dCer 24:1 (pancreas): 47.3 ± 31.67 pg/mg; Cer 14:0 (scWAT): 32099.4 ± 10520.94 pg/mg; Cer 16:0 (scWAT): 191093.1 ± 51596.09 pg/mg; Cer 18:0 (scWAT): 82819.6 ± 17887.79 pg/mg; Cer 18:1 (scWAT): 21443 ± 6799 pg/mg; Cer 20:0 (scWAT): 147177.5 ± 8589.73 pg/mg; Cer 22:0 (scWAT): 712843.5 ± 129405.16 pg/mg; Cer 24:0 (scWAT): 2685762.3 ± 976754.88 pg/mg; Cer 24:1 (scWAT): 3013765.2 ± 650894.91 pg/mg; Cer 26:0 (scWAT): 24885.1 ± 6744.06 pg/mg; Cer 26:1 (scWAT): 30570.9 ± 6986.86 pg/mg; DeoxySphinganie (scWAT): 1329.3 ± 1128.06 pg/mg; Deoxysphingosine (scWAT): 0.0 ± 0.0 pg/mg; Hexosyl 14:0 (scWAT): 5193.4 ± 2870.39 pg/mg
